Data reported in PubChem BioAssay (NCI).
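96-well plates; 48 h exposure; 5 concentrations. Endpoints by linear interpolation between flanking doses. Not reached: highest tested concentration assigned. Abbreviation: GI50, concentration required for 50% inhibition of growth. TGI: concentration producing complete growth inhibition.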

Key:
Experiment in all cases: NCI anticancer screen, dose series, 48 h
[1] = tested on: HT29 colon
[2] = tested on: NCI-H226 lung
[3] = tested on: HOP-62 NSCLC
[4] = tested on: MOLT-4 leukemia
[5] = tested on: CAKI-1 renal
[6] = tested on: MCF7 breast
[7] = tested on: HCT-15 colon
[8] = tested on: PC-3 prostate

SMILES	GI50 [1] [µM]	TGI [1] [µM]	GI50 [2] [µM]	TGI [2] [µM]	GI50 [3] [µM]	TGI [3] [µM]	GI50 [4] [µM]	TGI [4] [µM]	GI50 [5] [µM]	TGI [5] [µM]	GI50 [6] [µM]	TGI [6] [µM]	GI50 [7] [µM]	TGI [7] [µM]	GI50 [8] [µM]	TGI [8] [µM]
C[C@H](Nc1cc(Cl)nc2c1cnn2[C@@H]1O[C@H](COP(=O)(O)CP(=O)(O)O)[C@@H](O)[C@H]1O)c1ccccc1F	> 100	> 100	> 100	> 100	> 100	> 100	> 100	> 100	> 100	> 100	> 100	> 100	> 100	> 100	> 100	> 100
CS(=O)(=O)Nc1cc(-c2ccc3ncnc(Nc4c(Cl)ccc5c4OCO5)c3c2)cnc1Cl	0.238	3.93	0.309	3.54	0.156	3.53	0.165	0.76	0.053	0.869	0.0524	1.47	0.204	1.49	0.178	1.77
CCCCCCCN=C(N)c1ccc(N2CCN(c3ccc(C(N)=NCCCCCCC)cc3)CC2)cc1	2.98	> 100	2.13	> 100	2.5	> 100	2.71	> 100	0.474	21.4	0.208	–	0.45	> 61.9	0.268	> 20
COC(=O)c1ccc(-c2c(C#N)[n+](=O)c3cc(Cl)c(Cl)cc3n2[O-])cc1	19.9	58	25.7	70.6	16.8	34.8	1.18	2.96	18.9	35.4	19.2	42.1	11.1	91.2	9.79	27.9
COc1cccc2c1C(=O)c1c(O)c3c(c(O)c1C2=O)C[C@@](O)(/C(C)=N/NC(=O)c1ccc(Cl)cc1)C[C@@H]3OC1CC(N)C(O)C(C)O1 (stereo partly specified)	0.232	1.41	0.187	0.897	0.215	1.94	0.0545	3.31	0.708	5.98	–	–	1.02	12.6	0.293	1.6
Cc1cc(N(CCCNc2ccnc3cc(Cl)ccc23)Cc2ccc3c(c2)OCO3)nc(N2CCOCC2)n1	0.247	0.695	–	–	–	–	0.283	0.953	–	–	0.286	92	0.311	11.7	0.352	29.2
CC1(C)N=C(N)N=C(N)N1c1ccc(CCCCc2ccc(Cl)c(S(=O)(=O)F)c2)c(Cl)c1	0.264	15.7	4.18	37.6	5.82	> 43.7	0.622	14.8	1.82	10.5	0.529	16.9	0.597	> 100	0.214	15.1
CCOC(=O)/C=C/c1ccc(C#Cc2ccccc2)cc1	> 100	> 100	> 100	> 100	> 100	> 100	> 100	> 100	> 100	> 100	> 100	> 100	> 100	> 100	> 100	> 100
Oc1ccc(Nc2c3ccccc3nc3occ(Cl)c23)cc1	4.49	> 100	3.12	13.5	4.37	36.2	3.14	13.2	3.95	> 100	3.38	11.3	4.77	> 100	2.71	20.3
COc1ccc(Cn2c(N)c(S(=O)(=O)c3ccc(Cl)cc3)c3nc(C#N)c(C#N)nc32)cc1	–	–	–	–	> 50	> 50	–	–	21.9	> 50	5.85	> 50	> 50	> 50	33.5	> 50
COC(=O)C1=CN(CC2=CC(=O)C(C)=CC2=O)C=C(C(=O)OC)C1c1cccc(OC)c1	37	> 100	20	62.2	19.3	38.9	3.11	> 100	2.45	5.61	16	> 100	16.6	39	8	29.9
CSc1ccccc1C#C/C=C\C#Cc1ccccc1N	25.1	54.8	13.4	52	5.39	26.3	8.04	> 100	0.32	1.68	–	–	6.65	32.5	14.5	> 100
COc1ccc(-c2nnc(N3CCN(C(=O)CN4CCN(c5ccccc5)CC4)CC3)nc2-c2ccc(OC)cc2)cc1	–	–	3.76	> 100	13	42.7	2.04	6.64	6.23	> 100	2.8	> 100	3.13	> 100	3.83	> 100
O=C(Nc1ccc(Cl)c(C(F)(F)F)c1)c1ccc(NC2=C(Cl)C(=O)N(Cc3ccccc3)C2=O)cc1	7.47	> 100	23.1	53	22.4	46.1	2.89	> 100	19.4	38.6	–	–	–	–	3.39	11.8
CN1CC[C@@H](c2c(O)cc(O)c3c(=O)cc(-c4ccc(C(F)(F)F)cc4Cl)oc23)[C@@H]1CO	17.6	33.9	10.5	77.2	17.2	43.5	–	–	14.7	39.8	14.5	38.3	20.9	78.2	19	44.5
COc1ccc(-c2cc(/C=C/C(=O)c3ccc(OC)c(OC)c3)[nH]n2)cc1	1.55	3.45	–	–	2.35	6.17	2.67	8	1.55	3.52	0.417	1.76	1.35	3.56	1.45	3.46
Cc1ccc(Nc2oc(-c3ccccc3)nc2[P+](c2ccccc2)(c2ccccc2)c2ccccc2)cc1	0.38	1.59	–	–	1.34	3.24	0.563	2.52	1.22	2.72	0.433	1.98	0.64	2.16	0.585	2.01
COC(=O)c1s/c(=N\C(=S)N(C)C)n(-c2ccc(Cl)cc2)c1C(=O)OC	–	> 100	–	> 100	–	> 100	–	> 100	–	> 100	–	–	–	> 100	–	–
COc1ccc(/C(=C\C=C(C#N)C#N)Sc2nc3ccccc3s2)cc1	1.54	6.06	11.2	40.9	8.16	16.7	–	–	15.8	> 50	2.26	17.9	–	–	7.34	14.3
CCOC(=O)c1c(-c2ccc(OC)cc2)c(C#N)c2c(C#N)c(N)nn2c1N	3.98	> 100	3.62	> 100	3.32	22.1	4.07	> 100	2.95	> 100	3.31	> 100	2.95	> 100	–	–
COC12OCCN(C)C1=CC(=O)C1=NNC(C)C12 (stereo unspecified)	–	> 100	–	> 100	–	–	–	> 100	–	> 100	–	–	–	> 100	–	–
Cc1ccc2c(C3C(C#N)=C(N)Oc4cc5ccccc5cc43)cc(=O)oc2c1 (stereo unspecified)	3	13.1	62.1	> 100	1.22	> 100	2.05	> 100	–	–	0.428	> 100	0.64	> 100	1.25	> 100
Cn1cc(-c2csc(-c3c[nH]c4ccc(Br)cc34)n2)c2cnccc21	–	–	2.34	6	3.17	13.9	–	–	–	–	1.77	3.71	1.38	2.85	2.02	4.15
C[C@H]1CN[C@@H]2[C@@H](C)[C@H]3[C@@H](C[C@H]4[C@@H]5CC[C@H]6C[C@@H](N)CC[C@]6(C)[C@H]5CC[C@]34C)O[C@@]2(O)C1	–	3.9	–	5.77	–	–	–	7.77	–	6.43	–	26.3	–	4.5	–	13.9
